Like-named read-outs stand apart in the source and are kept apart here.
Legend:
[1] = In vivo metabolism of Compound 1: metabolites in dog plasma samples (LC/MS/MS); conditions: dog plasma after dosing Compound 1; under the analytical conditions used
Protocol: (§1) Metabolites of Compound 1 were identified in plasma samples collected from different pharmacokinetic studies in various species.
(§2) Four species, mouse, rat, dog and monkey were dosed with Compound 1, and plasma samples were collected at predetermined time points from each of the species according to specific study protocols. The samples were then processed and subjected to the LC/MS/MS analysis for the identification and quantification of the metabolites. Three metabolites, designated M1 (Compound 2), M2 (Compound 3), and M3 were identified in plasma samples from various species. The M1 metabolite was identified as a mono-N-demethylation of Compound 1, and the M2 metabolite was a di-N-demethylation product of Compound 1. The third metabolite M3 (i.e., 3-fluoro-4-(5-fluoro-6-(4-(3-(2-fluoropropan-2-yl)-1,2,4-oxadiazol-5-yl)piperidin-1-yl)pyrimidin-4-ylamino)benzoic acid, see below) was determined as a carboxylic acid of Compound 1.

[2] = tested on: dog liver microsomes; experiment: In vitro metabolism of Compound 1 in dog liver microsomes; assay type: in vitro ADME; conditions: Compound 1 incubated with 0.25 mg/mL microsomal protein, pH 7.4
Protocol: (§3) Compound 1 was incubated with mouse, rat, dog, monkey and human liver microsomal protein (0.25 mg/mL final concentration) in 100 mM potassium phosphate buffer containing 3 mM MgCl2 and 1 mM EDTA (pH 7.4) for over a period of time in the presence or absence of (3-NADPH. The samples were then processed and the supernatant was analyzed by LC-MS/MS for the identification and quantification of the metabolites.

[3] = target: T1, GPR119 receptor (Homo sapiens, UniProt Q8TDV5); experiment: HTRF assay for direct cAMP measurement in CHO-K1 cells stably expressing the GPR119 receptor; assay type: cell-based; conditions: for EC50: CHO-K1 cells stably expressing GPR119; for Pharmacological activity of metabolites (HTRF assay): metabolites of Compound 1
T1 construct: expressed in transfected cells
T1 sequence (Q8TDV5 2-335 limits assumed): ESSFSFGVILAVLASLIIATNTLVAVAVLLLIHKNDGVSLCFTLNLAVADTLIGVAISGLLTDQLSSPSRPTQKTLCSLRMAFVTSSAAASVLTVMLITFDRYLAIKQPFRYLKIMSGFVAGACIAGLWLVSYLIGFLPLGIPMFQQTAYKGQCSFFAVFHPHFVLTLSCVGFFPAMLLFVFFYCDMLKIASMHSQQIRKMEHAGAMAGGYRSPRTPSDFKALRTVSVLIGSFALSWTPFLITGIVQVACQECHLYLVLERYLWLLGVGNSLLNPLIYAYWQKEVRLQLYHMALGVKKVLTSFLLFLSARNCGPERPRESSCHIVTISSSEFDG
Protocol: The GPR119 agonist, Compound 1, was evaluated in an HTRF® cAMP detection assay according to the manufacturer's instructions (Cisbio, cAMP Dynamic 2 Assay Kit; #62AM4PEJ) using CHO-K1 cells stably expressing the GPR119 receptor. Briefly, CHO-K1 cells were transduced with a lentiviral vector encoding the nucleotide sequence of GPR119 (NCBI mRNA and protein reference sequences: NM_178471.2 & NP_848566, (GPR119 has also been referred to as Glucose-Dependent Insulinotropic Receptor (GDIR)). The N-terminus of the GPR119 nucleotide sequence was modified to replace the first, methionine-coding codon with a nucleotide sequence coding for a standard, nine amino acid, hemagglutinin tag. Following transduction, cells expressing the GPR119 receptor were isolated and a single clone was isolated following standard dilution-cloning procedures. On the day of the assay, cultured CHO-GPR119 cells were harvested, suspended in assay buffer and plated into 384-well assay plates (PerkinElmer Proxiplate #6008280) at a density of 2,000 cells per well. A cAMP standard curve was included on each plate. Test compounds were solubilized in DMSO, serially diluted in DMSO and then diluted in assay buffer before adding to the cells. Test compounds were evaluated in triplicate, using 10-point, 5-fold serial dilutions starting at 10 μM. The final DMSO concentration in the assay was 0.5%. Compounds and cells were incubated for 1 h at room temperature and then detection reagents were added to each well (cAMP-D2 in cell lysis buffer, followed by europium cryptate-labeled anti-cAMP antibody). Plates were then incubated at room temperature for 1 h prior to reading. Time-resolved fluorescence measurements were collected on PerkinElmer Envision™ or BMG Pherastar™ microplate readers. The compound N-(2-fluoro-4-(methylsulfonyl)phenyl)-6-(4-(3-isopropyl-1,2,4-oxadiazol-5-yl)piperidin-1-yl)-5-nitropyrimidin-4-amine was used as a positive control in each runset while assay buffer containing 0.5% DMSO was used as the negative control.

[4] = human studies; infusion; over 24 hours; cited from earlier work
[5] = In vivo metabolism of Compound 1: metabolites in plasma samples from various species (LC/MS/MS); design: species or system mouse, rat, dog and monkey; conditions: all species, after dosing Compound 1
Protocol: as §1, §2

[6] = combined administration with a DPP-IV inhibitor, cited from earlier work
[7] = tested on: liver microsomes; experiment: In vitro metabolism of Compound 1 in liver microsomes from various species; assay type: in vitro ADME, mouse, rat, dog, monkey and human; conditions: Compound 1 incubated with 0.25 mg/mL microsomal protein, pH 7.4; relative to M2 and M3
Protocol: as §3

[8] = 1 h incubation at room temperature, read-out: EC50, HTRF cAMP assay

Compound: CC(C)(F)c1noc(C2CCN(c3ncnc(Nc4ccc(C(N)=O)cc4F)c3F)CC2)n1 [Compound 3, 3-fluoro-4-(5-fluoro-6-(4-(3-(2-fluoropropan-2-yl)-1,2,4-oxadiazol-5-yl)piperidin-1-yl)pyrimidin-4-ylamino)benzamide]
- Metabolite observed in dog plasma samples [1]: not observed
- Formation of metabolite in dog liver microsomes [2]: negligible
- EC50 [3, 8]: 28.2 nM
- Pharmacological activity of metabolites (HTRF assay) [3]: pharmacologically active

Compound: PYY3-36: generated from PYY1-36 by cleavage of the N-terminal Tyr and Pro residues by DPP-IV; Y2R agonist
- Reduction of food intake [4]: 33%

Compound: CC(C)(F)c1noc(C2CCN(c3ncnc(Nc4ccc(C(=O)O)cc4F)c3F)CC2)n1 [Compound M3, 3-fluoro-4-(5-fluoro-6-(4-(3-(2-fluoropropan-2-yl)-1,2,4-oxadiazol-5-yl)piperidin-1-yl)pyrimidin-4-ylamino)benzoic acid]
- Circulating metabolite status [5]: major circulating metabolite
- EC50 ([3]; read-out: EC50, HTRF assay): 100000 nM
- Pharmacological activity of metabolites (HTRF assay) [3]: substantially little activity

Compound: CC(C)c1noc(C2CCN(c3ncnc(Nc4ccc(S(C)(=O)=O)cc4F)c3[N+](=O)[O-])CC2)n1 [Compound B111, (2-Fluoro-4-methanesulfonyl-phenyl)-{6-[4-(3-isopropyl-[1,2,4]oxadiazol-5-yl)-piperidin-1-yl]-5-nitro-pyrimidin-4-yl}-amine]
- Plasma GLP-1 levels ([6]; greater than either agent alone): acutely increased plasma GLP-1 levels
- Glucose tolerance ([6]; significantly greater degree than either agent alone): improved glucose tolerance

Compound: CNC(=O)c1ccc(Nc2ncnc(N3CCC(c4nc(C(C)(C)F)no4)CC3)c2F)c(F)c1 [Compound 2, 3-fluoro-4-(5-fluoro-6-(4-(3-(2-fluoropropan-2-yl)-1,2,4-oxadiazol-5-yl)piperidin-1-yl)pyrimidin-4-ylamino)-N-methylbenzamide]
- Rate of formation of metabolite in liver microsomal incubation [7]: highest
- EC50 [3, 8]: 27 nM
- Pharmacological activity of metabolites (HTRF assay) [3]: pharmacologically active

From patent US10894787B2, “Modulators of the GPR119 receptor and the treatment of disorders related thereto” (Arena Pharmaceuticals, Inc., priority 2010, dated 2021)
